The values that follow come from patent US6706744B2, “Glucagon antagonists/inverse agonists” (Novo Nordisk A/S, priority 2000, dated 2004).

Series [1] concerns the target T1, human glucagon receptor (Homo sapiens, UniProt P47871).
T1 construct: expressed in transfected cells; host or cells: BHK (baby hamster kidney) cells; membrane preparation
The series is described as follows: Glucagon binding assay (II). As to conditions: membranes of BHK cells transfected with human glucagon receptor; 125I-glucagon tracer; SPA. How it is done: Glucagon Binding Assay (II)
BHK (baby hamster kidney cell line) cells are transfected with the human glucagon receptor and a membrane preparation of the cells is prepared. Wheat Germ Agglutinin derivatized SPA beads containing a scintillant (WGA beads) (Amersham) bound the membranes. ^125I-glucagon bound to human glucagon receptor in the membranes and excited the scintillant in the WGA beads to light emission. Glucagon or samples binding to the receptor competed with ^125I-glucagon.
(§1) All steps in the membrane preparation are kept on ice or performed at 4° C. BHK cells are harvested and centrifuged. The pellet is resuspended in homogenisation buffer (25 mM HEPES, pH=7.4, 2.5 mM CaCl2, 1.0 mM MgCl2, 250 mg/l bacitracin, 0, 1 mM Pefabloc), homogenised 2×10 sec using Polytron 10-35 homogenizer (Kinematica) and added the same amount of homogenisation buffer as used for resuspension. After centrifugation (15 min at 2000×g) the supernatant is transferred to cold centrifuge tubes and centrifuged for 45 min at 40.000×g. The pellet is resuspended in homogenisation buffer, homogenised 2×10 sec (Polytron) and additional homogenisation buffer is added. The suspension is centrifuged for 45 min at 40.000×g and the pellet is resuspended in resuspension buffer (25 mM HEPES, pH=7.4, 2.5 mM CaCl2, 1.0 mM MgCl2) and homogenised 2×10 sec. (Polytron). The protein concentration is normally around 1.75 mg/ml. Stabilisation buffer (25 mM HEPES, pH=7.4, 2.5 mM CaCl2, 1.0 mM MgCl2, 1% bovine serum albumin, 500 mg/l bacitracin, 2.5 M sucrose) is added and the membrane preparation is stored at −80° C.
The glucagon binding assay is carried out in opti plates (Polystyrene Microplates, Packard). 50 μL assay buffer (25 mM HEPES, pH=7.5, 2.5 mM CaCl2, 1.0 mM MgCl2, 0.003% Tween-20, 0.005% bacitracin, 0.05% sodium azide) and 5 μl glucagon or test compound (in DMSO) are added to each well. 50 μl tracer (^125I-porcine glucagon, 50.000 cpm) and 50 μl membranes (7.5 μg) containing the human glucagon receptor are then added to the wells. Finally 50 μl WGA beads containing 1 mg beads are transferred to the well. The opti plates are incubated for 4 hours on a shaker and then settled for 8-48 hours. The opti plates are counted in a Topcounter. Non-specific binding is determined with 500 nM of glucagon.

Series [2] has as its target T2, human GIP receptor (Homo sapiens, UniProt P48546).
T2 construct: expressed in transfected cells; host or cells: BHK (baby hamster kidney) cells; membrane preparation
T2 sequence (P48546 22-466): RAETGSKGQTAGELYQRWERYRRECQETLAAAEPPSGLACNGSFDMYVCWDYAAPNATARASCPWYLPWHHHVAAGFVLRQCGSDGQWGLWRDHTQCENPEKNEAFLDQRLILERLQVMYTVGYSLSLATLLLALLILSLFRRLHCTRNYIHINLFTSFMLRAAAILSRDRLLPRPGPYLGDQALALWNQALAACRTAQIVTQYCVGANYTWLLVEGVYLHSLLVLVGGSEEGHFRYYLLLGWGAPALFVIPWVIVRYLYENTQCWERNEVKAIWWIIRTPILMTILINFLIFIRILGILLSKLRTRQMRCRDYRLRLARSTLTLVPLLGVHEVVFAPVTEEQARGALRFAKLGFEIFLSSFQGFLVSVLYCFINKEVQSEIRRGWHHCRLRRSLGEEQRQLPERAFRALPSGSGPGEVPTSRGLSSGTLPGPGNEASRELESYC
The series is described as follows: GIP binding assay. The following applies: membranes of BHK cells transfected with human GIP receptor; 125I-GIP tracer; SPA. The procedure: BHK (baby hamster kidney cell line) cells are transfected with the human GIP receptor and a membrane preparation of the cells is prepared. Wheat Germ Agglutinin derivatized SPA beads containing a scintillant (WGA beads) (Amersham) bound the membranes. ^125I-GIP bound to human GIP receptor in the membranes and excited the scintillant in the WGA beads to light emission. GIP or samples binding to the receptor competed with ^125I-GIP.
as §1, with “0.1” for “0, 1”
The GIP binding assay is carried out in opti plates (Polystyrene Microplates, Packard). 50 μl assay buffer (25 mM HEPES, pH=7.5, 2.5 mM CaCl2, 1.0 mM MgCl2, 0.003% Tween-20, 0.005% bacitracin, 0.05% sodium azide) and 5 μl GIP or test compound (in DMSO) are added to each well. 50 μl tracer (^125I-porcine GIP, 50.000 cpm) and 50 μl membranes (20 μg) containing the human GIP receptor are then added to the wells. Finally 50 μl WGA beads containing 1 mg beads are transferred to the well. The opti plates are incubated for 3.5 hours on a shaker and then settled for 8-48 hours. The opti plates are counted in a Topcounter. Non-specific binding is determined with 500 nM of GIP.

T1 sequence (P47871 26-477): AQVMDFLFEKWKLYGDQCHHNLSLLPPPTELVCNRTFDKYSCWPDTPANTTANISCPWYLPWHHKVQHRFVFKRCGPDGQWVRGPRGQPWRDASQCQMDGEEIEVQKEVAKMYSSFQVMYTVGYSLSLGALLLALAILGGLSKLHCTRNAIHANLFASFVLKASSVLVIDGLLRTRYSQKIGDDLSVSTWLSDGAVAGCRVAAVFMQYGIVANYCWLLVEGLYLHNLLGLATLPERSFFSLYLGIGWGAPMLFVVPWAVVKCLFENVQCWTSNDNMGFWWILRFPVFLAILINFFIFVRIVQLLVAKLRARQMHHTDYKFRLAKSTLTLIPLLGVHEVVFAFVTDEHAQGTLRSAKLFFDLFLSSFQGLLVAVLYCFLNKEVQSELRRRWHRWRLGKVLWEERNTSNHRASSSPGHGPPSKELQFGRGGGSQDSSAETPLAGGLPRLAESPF

For `O=C(O)CCNC(=O)c1ccc(CN(C(=O)Nc2cccc(Br)c2)c2ccc(C3CCCCC3)cc2)cc1` [Example 5, 3-{4-[3-(3-Bromophenyl)-1-(4-Cyclohexylphenyl)ureidomethyl]benzoylamino}propionic acid], the concentration for half-maximal inhibition (IC50) in series [1] was 42 nM; in series [2] it was 265 nM.

In the case of `C[C@H](NC(=O)N(Cc1ccc(C(=O)NCCC(=O)O)cc1)c1ccc(C2CCCCC2)cc1)c1ccc(Cl)cc1` [Example 1, 3-{4-[3-[1(S)-(4-Chlorophenyl)ethyl]1-(4-cyclohexylphenyl)ureidomethyl]benzoylamino}propionic acid], the IC50 in series [1] was found to be 64 nM; in series [2], 644 nM.

Take `O=C(O)CCNC(=O)c1ccc(CN(C(=O)Nc2ccc(OC(F)(F)F)c(CO)c2)c2ccc(C3=CCCCC3)cc2)cc1` [Example 11, 3-{4-[1-(4-Cyclohex-1-enylphenyl)-3-(3-hydroxymethyl-4-trifluoromethoxyphenyl)ureidomethyl]benzoylamino}propionic acid]: the IC50 in series [1] is 64 nM; in series [2], 152 nM.

On to `N#Cc1cc(NC(=O)N(Cc2ccc(C(=O)NCCC(=O)O)cc2)c2ccc(C3CCCCC3)cc2)cc(C(F)(F)F)c1` [Example 8, 3-{4-[3-(3-Cyano-5-trifluoromethylphenyl)-1-(4-cyclohexylphenyl)ureidomethyl]benzoyl-amino}propionic acid], for which the results for the half-maximal inhibitory concentration (IC50) in series [1] and in series [2] were 35 nM and 76 nM, respectively.

With `O=C(O)CCNC(=O)c1ccc(CN(C(=O)Nc2cccc(C(F)(F)F)c2)c2ccc(C3CCCCC3)cc2)cc1` [Example 7, 3-{4-[1-(4-Cyclohexylphenyl)-3-(3-trifluoromethylphenyl)ureidomethyl]benzoylamino}propionic acid], the 50% inhibitory concentration (IC50) in series [1] amounted to 29 nM; in series [2], 82 nM.

On to `O=C(O)CCNC(=O)c1ccc(CN(C(=O)Nc2cc(F)cc(C(F)(F)F)c2)c2ccc(C3CCCCC3)cc2)cc1` [Example 4, 3-{4-[1-(4-Cyclohexylphenyl)-3-(3-fluoro-5-trifluoromethylphenyl)ureidomethyl]benzoylamino}propionic acid], for which the IC50 in series [1] came to 29 nM; in series [2], 90 nM.

Regarding `O=C(O)CCNC(=O)c1ccc(CN(C(=O)Nc2cccc(OC(F)(F)F)c2)c2ccc(C3=CCCCC3)cc2)cc1` [Example 3, 3-{4-[3-(3-Trifluoromethoxyphenyl)-1-(4-cyclohex-1-enylphenyl)ureidomethyl]benzoylamino}propionic acid], the IC50 is 25 nM in series [1] and 34 nM in series [2].

`CS(=O)(=O)c1cc(NC(=O)N(Cc2ccc(C(=O)NCCC(=O)O)cc2)c2ccc(C3=CCCCC3)cc2)ccc1OC(F)(F)F` [Example 6, 3-{4-[1-(4-Cyclohexen-1-ylphenyl)-3-(3-methanesulfonyl-4-trifluoromethoxyphenyl)ureidomethyl]benzoylamino}propionic acid]: the figures for the IC50 in series [1] and in series [2] were 9 nM and 177 nM, respectively.

Take `O=C(O)CCNC(=O)c1ccc(CN(C(=O)Nc2ccc(OC(F)(F)F)c(CO)c2)c2ccc(C3CCCCC3)cc2)cc1` [Example 10, 3-{4-[1-(4-Cyclohexylphenyl)-3-(3-hydroxymethyl-4-trifluoromethoxyphenyl)ureidomethyl]benzoylamino}propionic acid]: the melting point lay within 167.5 to 168.5 °C. For the same compound, the IC50 in series [1] was found to be 49 nM. The compound also had an IC50 in series [2] of 107 nM.

As for `O=C(O)CCNC(=O)c1ccc(CN(C(=O)Nc2cccc(Br)c2)c2ccc(C3=CCCCC3)cc2)cc1` [Example 2, 3-{4-[3-(3-Bromophenyl)-1-(4-cyclohex-1-enylphenyl)ureidomethyl]benzoylamino}propionic acid], the IC50 in series [1] was 53 nM; in series [2], 198 nM.

Consider `N#Cc1cc(NC(=O)N(Cc2ccc(C(=O)NCCC(=O)O)cc2)c2ccc(C3=CCCCC3)cc2)cc(C(F)(F)F)c1` [Example 9, 3-{4-[3-(3-Cyano-5-trifluoromethylphenyl)-1-(4-cyclohex-1-enylphenyl)ureidomethyl]benzoyl-amino}propionic acid], for which the concentration for half-maximal inhibition (IC50) turned out to be 42 nM in series [1] and 122 nM in series [2].

As usually defined, the IC50 is the concentration that gives 50% inhibition. Lower therefore signals higher potency. In general, melting point refers to the temperature, or range, at which the solid turns liquid.
